Assay results from patent publication US20210137886A1, “INHIBITORS OF METALLO-BETA-LACTAMASES” (Oxford University Innovation Limited, priority 2017, published 2021).
In brackets after ≈: the same amount, converted by molar mass.

What was measured:
[1] = molecular target: VIM-2 (Veronese metallo-β-lactamase-2) (Escherichia coli, UniProt Q5U7L7); assay: Metallo-β-lactamase enzyme inhibition, standard assay protocol
IMP-1 (Imipenemase-1) = IMP-1 (Imipenemase-1) (Serratia marcescens, UniProt P52699); assay: as above
[2] = molecular target: NDM-1 (New Delhi metallo-β-lactamase-1) (Klebsiella pneumoniae, UniProt C7C422); assay: as above
[3] = molecular target: VIM-1 (Veronese metallo-β-lactamase-1) (Pseudomonas aeruginosa, UniProt A0A0F7KYQ8); assay: as above
[4] = test system: Klebsiella pneumoniae IMP-4; assay: Meropenem MIC, CLSI broth or agar microdilution, strain entry 1; type: cell-based
E. coli IMP-4 = assay: Meropenem MIC, CLSI broth or agar microdilution, strain entry 2; type: cell-based
E. coli VIM-1 = assay: Meropenem MIC, CLSI broth or agar microdilution, strain entry 3; type: cell-based; conditions: for Change in MIC value of meropenem: strain entry 3, E. coli VIM-1
Text: (§1) In each case DMSO was used to dissolve inhibitors.

[5] = test system: Klebsiella pneumoniae VIM-1; assay: Meropenem MIC, CLSI broth or agar microdilution, strain entry 4; type: cell-based
[6] = test system: Pseudomonas aeruginosa VIM-2; assay: Meropenem MIC, CLSI broth or agar microdilution, strain entry 5; type: cell-based; conditions: for Change in MIC value of meropenem: strain entry 5, Pseudomonas aeruginosa VIM-2
Text: as §1

[7] = test system: Klebsiella pneumoniae NDM-1; assay: Meropenem MIC, CLSI broth or agar microdilution, strain entry 6; type: cell-based; conditions: for Change in MIC value of meropenem: strain entry 6, Klebsiella pneumoniae NDM-1
Text: as §1

[8] = test system: Klebsiella pneumoniae NDM-1 + DHA + CTX − M-15; assay: Meropenem MIC, CLSI broth or agar microdilution, strain entry 7; type: cell-based

Sequence of NDM-1 (New Delhi metallo-β-lactamase-1) (C7C422 29-270, looked up, species assumed): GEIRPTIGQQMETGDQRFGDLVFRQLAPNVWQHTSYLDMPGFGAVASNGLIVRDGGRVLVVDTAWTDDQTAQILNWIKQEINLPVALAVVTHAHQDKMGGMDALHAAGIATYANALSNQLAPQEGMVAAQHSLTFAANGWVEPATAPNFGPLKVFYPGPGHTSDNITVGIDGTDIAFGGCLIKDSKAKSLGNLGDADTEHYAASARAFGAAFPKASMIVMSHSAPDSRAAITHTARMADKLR
Sequence of IMP-1 (Imipenemase-1) (P52699 19-246, looked up, species assumed): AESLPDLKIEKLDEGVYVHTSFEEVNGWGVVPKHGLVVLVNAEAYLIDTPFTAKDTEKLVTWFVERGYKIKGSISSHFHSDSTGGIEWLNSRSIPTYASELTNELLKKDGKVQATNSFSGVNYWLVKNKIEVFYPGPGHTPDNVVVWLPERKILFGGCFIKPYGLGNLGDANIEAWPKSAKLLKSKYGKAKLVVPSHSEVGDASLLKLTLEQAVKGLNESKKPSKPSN

Structure (SMILES)	IC50 [1] [µM]	IC50 (IMP-1 (Imipenemase-1)) [µM]	IC50 [2] [µM]	IC50 [3] [µM]	Change in MIC value of meropenem ([4]; 2 mg/L inhibitor) [log2 difference]	Change in MIC value of meropenem ([4]; 4 mg/L inhibitor) [log2 difference]	Change in MIC value of meropenem ([4]; 8 mg/L inhibitor) [log2 difference]	Change in MIC value of meropenem (E. coli IMP-4; 2 mg/L inhibitor) [log2 difference]	Change in MIC value of meropenem (E. coli IMP-4; 4 mg/L inhibitor) [log2 difference]	Change in MIC value of meropenem (E. coli IMP-4; 8 mg/L inhibitor) [log2 difference]	Change in MIC value of meropenem (E. coli VIM-1; 2 mg/L inhibitor) [log2 difference]	Change in MIC value of meropenem (E. coli VIM-1; 4 mg/L inhibitor) [log2 difference]	Change in MIC value of meropenem (E. coli VIM-1; 8 mg/L inhibitor) [log2 difference]	Change in MIC value of meropenem ([5]; 2 mg/L inhibitor) [log2 difference]	Change in MIC value of meropenem ([5]; 4 mg/L inhibitor) [log2 difference]	Change in MIC value of meropenem ([5]; 8 mg/L inhibitor) [log2 difference]	Change in MIC value of meropenem ([6]; 2 mg/L inhibitor) [log2 difference]	Change in MIC value of meropenem ([6]; 4 mg/L inhibitor) [log2 difference]	Change in MIC value of meropenem ([6]; 8 mg/L inhibitor) [log2 difference]	Change in MIC value of meropenem ([7]; 2 mg/L inhibitor) [log2 difference]	other results
O=C(O)c1[nH]c2c(Br)csc2c1-c1cc(Cl)cc(Cl)c1 [Example 1, 3-bromo-6-(3,5-dichlorophenyl)-4H-thieno[3,2-b]pyrrole-5-carboxylic acid]	0.0398	1	0.0631	0.631																	
O=C(O)c1[nH]c2c(C3CC3)csc2c1-c1cc(Cl)cc(Cl)c1 [Example 2, 3-cyclopropyl-6-(3,5-dichlorophenyl)-4H-thieno[3,2-b]pyrrole-5-carboxylic acid]	0.00501	0.0794	0.0158	0.126	−2	−2	−2	−2	−2	−3	−1	−1	−1	−2	−2	−2	0	0	0	−1	Change in MIC value of meropenem ([7]; 4 mg/L inhibitor): −1 log2 difference; Change in MIC value of meropenem ([7]; 8 mg/L inhibitor): −2 log2 difference; Change in MIC value of meropenem ([8]; 2 mg/L inhibitor): −1 log2 difference; Change in MIC value of meropenem ([8]; 4 mg/L inhibitor): −2 log2 difference; Change in MIC value of meropenem ([8]; 8 mg/L inhibitor): −3 log2 difference
O=C(O)c1cc2scc(Br)c2[nH]1 [Example 3, 3-bromo-4H-thieno[3,2-b]pyrrole-5-carboxylic acid]	15.8	> 251	126	> 251																	
O=C(O)c1[nH]c2c(Br)csc2c1-c1ccc(F)cc1 [Example 4, 3-Bromo-6-(4-fluorophenyl)-4H-thieno-[3,2-b]pyrrole-5-carboxylic acid]	0.316	2.51	0.2	5.01																	
O=C(O)c1[nH]c2c(-c3ccc(F)cc3)csc2c1-c1ccc(F)cc1 [Example 5, 3,6-Bis(4-fluorophenyl)-4H-thieno-[3,2-b]pyrrole-5-carboxylic acid]	10	2.51	12.6	> 39.8																	
C=C(C)c1csc2c(-c3ccc(F)cc3)c(C(=O)O)[nH]c12 [Example 6, 3-isopropenyl-6-(4-fluorophenyl)-4H-thieno-[3,2-b]pyrrole-5-carboxylic acid]	0.126	0.501	0.0398	0.631	−2	−2	−2	−2	−2	−2	−1	0	−1	−1	−1	0	0	0	0	−1	Change in MIC value of meropenem ([7]; 4 mg/L inhibitor): −1 log2 difference; Change in MIC value of meropenem ([7]; 8 mg/L inhibitor): −1 log2 difference; Change in MIC value of meropenem ([8]; 2 mg/L inhibitor): −1 log2 difference; Change in MIC value of meropenem ([8]; 4 mg/L inhibitor): −1 log2 difference; Change in MIC value of meropenem ([8]; 8 mg/L inhibitor): −1 log2 difference
CC(C)c1csc2cc(C(=O)O)[nH]c12 [Example 7, 3-isopropyl-4H-thieno[3,2-b]pyrrole-5-carboxylic acid]	20	> 63.1	39.8	> 251																	
O=C(O)c1cc2scc(C3CC3)c2[nH]1 [Example 8, 3-cyclopropyl-4H-thieno[3,2-b]pyrrole-5-carboxylic acid]	39.8	> 251	126	> 251																	
CC(=O)Nc1cccc(-c2c(C(=O)O)[nH]c3c(Br)csc23)c1 [Example 9, 6-(3-acetamidophenyl)-3-bromo-4H-thieno[3,2-b]pyrrole-5-carboxylic acid]	0.0501	12.6	0.316	1.58																	
CC(C)c1csc2c(-c3ccc(F)cc3)c(C(=O)O)[nH]c12 [Example 12, 3-isopropyl-6-(4-fluorophenyl)-4H-thieno-[3,2-b]pyrrole-5-carboxylic acid]	0.0398	0.0501	0.0501	0.631	−2	−2	−2	−2	−2	−3	−1	−1	−1	−2	−2	−2	0	0	0	−1	Change in MIC value of meropenem ([7]; 4 mg/L inhibitor): −1 log2 difference; Change in MIC value of meropenem ([7]; 8 mg/L inhibitor): −2 log2 difference; Change in MIC value of meropenem ([8]; 2 mg/L inhibitor): −1 log2 difference; Change in MIC value of meropenem ([8]; 4 mg/L inhibitor): −2 log2 difference; Change in MIC value of meropenem ([8]; 8 mg/L inhibitor): −3 log2 difference
CS(=O)(=O)Cc1ccc(-c2c(C(=O)O)[nH]c3c(C4CC4)csc23)cc1Cl [Example 18, 6-(3-chloro-4-((methylsulfonyl)methyl)phenyl)-3-cyclopropyl-4H-thieno[3,2-b]pyrrole-5-carboxylic acid]					0	0	0	0	0	0	−1	−1	−1	−3	−2	−3	0	0	0	0	Change in MIC value of meropenem ([7]; 4 mg/L inhibitor): 0 log2 difference; Change in MIC value of meropenem ([7]; 8 mg/L inhibitor): 0 log2 difference; Change in MIC value of meropenem ([8]; 2 mg/L inhibitor): −2 log2 difference; Change in MIC value of meropenem ([8]; 4 mg/L inhibitor): −2 log2 difference; Change in MIC value of meropenem ([8]; 8 mg/L inhibitor): −2 log2 difference
C[C@@H](O)[C@H]1C(=O)N2C(C(=O)O)=C(S[C@@H]3CN[C@H](C(=O)N(C)C)C3)[C@H](C)[C@H]12 [meropenem, reference compound]																					MIC (E. coli VIM-1; Escherichia coli, VIM1, read-out: MER MIC): 0.25 mg/L (≈ 0.652 µM); MIC ([6]; Pseudomonas aeruginosa, VIM2, read-out: MER MIC): 32 mg/L (≈ 83.4 µM); MIC ([7]; Klebsiella pneumoniae, NDM1, read-out: MER MIC): > 128 mg/L
